Source: patent US20020009491A1, “Compositions and methods for enhancing drug delivery across biological membranes and tissues” (priority 2000, published 2002)

Key:
[1] = fluorescein alone; cited from earlier work
[2] = cited from earlier work
[3] = Water solubility of taxol phosphate analog / arginine heptamer salt versus taxol
Description: This water soluble analog of taxol was assayed for biological activity using a standard cytotoxicity assay.

| Structure (SMILES) | solubility in water (general statement) [1] | water solubility [2] | solubility in water [3] |
| --- | --- | --- | --- |
| O=C1OC2(c3ccc(O)cc3Oc3cc(O)ccc32)c2ccccc21 [fluorescein] | poorly soluble |  |  |
| CC(=O)O[C@H]1C(=O)[C@@]2(C)[C@H]([C@H](OC(=O)c3ccccc3)[C@]3(O)C[C@H](OC(=O)[C@H](O)[C@@H](NC(=O)c4ccccc4)c4ccccc4)C(C)=C1C3(C)C)[C@]1(OC(C)=O)CO[C@@H]1C[C@@H]2O [taxol, paclitaxel] |  | ≈ 0.25 μg/mL | very limited solubility |
| CC(=O)O[C@@]12CO[C@@H]1C[C@H](O)[C@@]1(C)C(=O)[C@H](O)C3=C(C)[C@@H](OC(=O)[C@H](O)[C@@H](NC(=O)OC(C)(C)C)c4ccccc4)C[C@@](O)([C@@H](OC(=O)c4ccccc4)[C@H]21)C3(C)C [taxotere] |  | 6 to 7 µg/mL |  |
